Patent publication US20230054194A1, “Methods of Treating Cancer” (ARIAGEN, INC., priority 2018, published 2023)

What was measured:
Hepa1-6 = Hepa1-6 subcutaneous syngeneic liver cancer mouse model (Study 9), tumor growth inhibition; type: in vivo, mouse (C57BL/6)
Protocol: (§1) In this example, the in vivo anti-tumor efficacy of ARI-001, ARI-002, ARI-003, and ARI-143 and their combinations with an anti-PD-1 antibody was evaluated using a panel of twelve subcutaneous syngeneic mouse tumor models.
(§2) Eleven subcutaneous syngeneic mouse tumor models were generated by innoculating female BALB/C or C57BL/6 mice with cancer cells at their right lower or right front flank followed by randomization as detailed in Table 4 below.
(§3) A solution of a rat monoclonal anti-mouse PD-1 antibody (isotype IgG2a, κ) at a concentration of 6.61 mg/ml was obtained from BioXcell (InVivoMAb anti-mouse PD-1 (CD279), Clone RMP1-14, Cat #BE0146)) and store at 4° C. The antibody solution was diluted with PBS to obtain a 1 mg/ml dosing solution.
(§4) ARI-001, ARI-002, and ARI-003 powder was stored at −20° C. The powder of each compound was dissolved in DMSO to obtain dosing solutions at 106.7, 80, and 53.33 mg/ml for administration to mice at 160, 120, and 80 mg/kg, respectively. ARI-143 was similarly prepared.
(§5) Twelve studies using the twelve subcutaneous syngeneic mouse tumor models were performed. In each study, 80 mice were enrolled and randomly allocated to eight different study groups, with 10 mice in each study group. The mean tumor size at randomization was approximately 80-120 mm^3 (around 100 mm^3). Randomization was performed based on “Matched distribution” randomization method (StudyDirector™ software, version 3.1.399.19). […] All the drugs and vehicle controls were injected to the mice intraperitoneally.
(§6) After tumor cell inoculation, the animals were checked daily for morbidity and mortality. At the time of routine monitoring, the animals were checked for any effects of tumor growth and treatments on behavior such as mobility, food and water consumption, body weight gain/loss (body weights were measured twice or three times per week after randomization), and any other abnormalities. Mortality and observed clinical signs were recorded for individual animals. Tumor volumes were measured twice or three times weekly after randomization in two dimensions using a caliper, and the volume was expressed in mm^3 using the formula: […]
(§7) where V is tumor volume, L is tumor length (the longest tumor dimension) and W is tumor width (the longest tumor dimension perpendicular to L).
(§8) The study was terminated when the mean tumor volume (MTV) in the vehicle group reached a value of 2,000 mm^3. Tumor growth inhibition (TGI) is an indication of antitumor activity, and expressed as: […]
(§9) where T and C are the MTV (or weight) of the treated and control groups, respectively, on a given day. Statistical analysis of the difference in MTV among the groups was conducted using the data collected on the day when the MTV of the vehicle group reached the humane endpoints, so that TGI could be derived for all or most mice enrolled in the study.
(§10) Statistical analysis of differences in MTV among the groups was conducted by Independent-Samples T Test using the data collected. All data were analyzed with SPSS (Statistical Product and Service Solutions) version 18.0 (IBM, Armonk, N.Y., U.S.). P-values were rounded to three decimal places, with the exception that raw P-values less than 0.001 were stated as P<0.001. All tests were two-sided. P<0.05 was considered to be statistically significant.
FIG. 68 is a graph showing the mean tumor volume on different study days in the study groups as indicated according to Study 9 (Hepal-6). The study end day was Day 26.

RM-1 = RM-1 subcutaneous syngeneic prostate cancer mouse model (Study 7), tumor growth inhibition; type: in vivo, mouse (C57BL/6); conditions: RM-1 model, study end day Day 19
Protocol: as §1, §2, §3, §4, §5, §6, §7, §8, §9, §10
FIG. 66 is a graph showing the mean tumor volume on different study days in the study groups as indicated according to Study 7 (RM-1). The study end day was Day 19.

A20 = A20 subcutaneous syngeneic lymphoma mouse model (Study 5), tumor growth inhibition; type: in vivo, mouse (BALB/C); conditions: A20 model, i.p.; ARI compounds 160 mg/kg QD × 14 doses, Anti-PD-1 10 BIW × 4 doses; study end day Day 26
Protocol: as §1, §2, §3, §4, §5, §6, §7, §8, §9, §10
FIG. 64 is a graph showing the mean tumor volume on different study days in the study groups as indicated according to Study 5 (A20). The study end day was Day 26.

H22 = H22 subcutaneous syngeneic liver cancer mouse model (Study 11), tumor growth inhibition; type: in vivo, mouse (BALB/C)
Protocol: as §1, §2, §3, §4, §5, §6, §7, §8, §9, §10
FIG. 70 is a graph showing the mean tumor volume on different study days in the study groups as indicated according to Study 11 (H22). The study end day was Day 18.

CT26 = assay: CT-26 subcutaneous syngeneic colon cancer mouse model (Study 4), tumor growth inhibition; type: in vivo, mouse (BALB/C); conditions: CT-26 model, i.p.; ARI compounds 160 mg/kg QD × 15 doses, Anti-PD-1 10 BIW × 5 doses; study end day Day 23
Protocol: as §1, §2, §3, §4, §5, §6, §7, §8, §9, §10
FIG. 63 is a graph showing the mean tumor volume on different study days in the study groups as indicated according to Study 4 (CT-26). The study end day was Day 23.

B16F10 = B16F10 subcutaneous syngeneic melanoma mouse model (Study 10), tumor growth inhibition; type: in vivo, mouse (C57BL/6)
Protocol: as §1, §2, §3, §4, §5, §6, §7, §8, §9, §10
FIG. 69 is a graph showing the mean tumor volume on different study days in the study groups as indicated according to Study 10 (B16F10). The study end day was Day 19.

LL/2 = LL/2 subcutaneous syngeneic lung cancer mouse model (Study 6), tumor growth inhibition; type: in vivo, mouse (C57BL/6)
Protocol: as §1, §2, §3, §4, §5, §6, §7, §8, §9, §10
FIG. 65 is a graph showing the mean tumor volume on different study days in the study groups as indicated according to Study 6 (LL/2). The study end day was Day 32.

Renca = Renca subcutaneous syngeneic kidney cancer mouse model (Study 8), tumor growth inhibition; type: in vivo, mouse (BALB/C)
Protocol: as §1, §2, §3, §4, §5, §6, §7, §8, §9, §10
FIG. 67 is a graph showing the mean tumor volume on different study days in the study groups as indicated according to Study 8 (Renca). The study end day was Day 28.

Pan02 = Pan02 subcutaneous syngeneic pancreatic cancer mouse model (Study 3), tumor growth inhibition; type: in vivo, mouse (C57BL/6)
Protocol: as §1, §2, §3, §4, §5, §6, §7, §8, §9, §10
FIG. 62 is a graph showing the mean tumor volume on different study days in the study groups as indicated according to Study 3 (Pan02). The study end day was Day 32.

EMT-6 = EMT-6 subcutaneous syngeneic breast cancer mouse model (Study 2 and Study 12), tumor growth inhibition; type: in vivo, mouse (BALB/C); conditions: EMT-6 syngeneic breast cancer model
Protocol: as §1, §2, §3, §4, §5, §6, §7, §8, §9, §10
FIG. 61 is a graph showing the mean tumor volume on different study days in the study groups as indicated according to Study 2 (EMT-6). The study end day was Day 27.

MC38 = MC38 subcutaneous syngeneic colon cancer mouse model (Study 1), tumor growth inhibition; type: in vivo, mouse (C57BL/6)
Protocol: as §1, §2, §3, §4, §5, §6, §7, §8, §9, §10
FIG. 60 is a graph showing the mean tumor volume on different study days in the study groups as indicated according to Study 1 (MC38). The study end day was Day 26.

[1] = Pan02 model, i.p., ARI compounds 160 mg/kg QD × 28 doses, Anti-PD-1 10 BIW × 8 doses, study end day Day 32
[2] = Pan02 syngeneic pancreatic cancer model
[3] = MC38 model, i.p., ARI compounds 160 mg/kg QD × 17 doses, Anti-PD-1 10 BIW × 5 doses, study end day Day 26

Compound: NC(=O)c1csc(C(=O)c2c[nH]c3ccccc23)n1 [ARI-003]
- Tumor size (Hepa1-6; Hepa1-6 model, Mean ± SEM, study end day Day 26, in mm³): 1251.31 ± 158.72
- TGI(%) (Hepa1-6; Hepa1-6 model, study end day Day 26): 23%
- anti-tumor potency of the compound combined with anti-PD-1 antibody, compared to being used alone (Hepa1-6; Hepa1-6 syngeneic liver cancer model): statistically significant increase
- Tumor size (RM-1; Mean ± SEM, in mm³): 1703.05 ± 39.79
- TGI(%) (RM-1): 43%
- TGI(%) (A20): 54%
- Tumor size (Mean ± SEM) (A20): 1206.83 ± 121.06 mm^3
- Tumor size (H22; H22 model, Mean ± SEM, study end day Day 18, in mm³): 1547.54 ± 100.51
- TGI(%) (H22; H22 model, study end day Day 18): 31%
- anti-tumor potency of the compound combined with anti-PD-1 antibody, compared to being used alone (H22; H22 syngeneic liver cancer model): statistically significant increase
- TGI(%) (CT26): 64%
- Tumor size (Mean ± SEM) (CT26): 836.51 ± 110.61 mm^3
- Tumor size (B16F10; B16F10 model, Mean ± SEM, study end day Day 19, in mm³): 2234.18 ± 248.14
- TGI(%) (B16F10; B16F10 model, study end day Day 19): 24%
- anti-tumor potency of anti-PD-1 antibody combined with the compound, compared to the antibody alone or the vehicle (B16F10; B16F10 syngeneic melanoma model): statistically significant increase
- Tumor size (LL/2; LL/2 model, Mean ± SEM, study end day Day 32, in mm³): 839.79 ± 99.43
- TGI(%) (LL/2; LL/2 model, study end day Day 32): 62%
- anti-tumor potency of anti-PD-1 antibody combined with the compound, compared to the antibody alone or the vehicle (LL/2; LL/2 syngeneic lung cancer model): statistically significant increase
- Tumor size (Renca; Renca model, Mean ± SEM, study end day Day 28, in mm³): 1240.04 ± 90.09
- TGI(%) (Renca; Renca model, study end day Day 28): 42%
- anti-tumor potency of anti-PD-1 antibody combined with the compound, compared to the antibody alone (Renca; Renca syngeneic kidney cancer model): statistically significant increase
- TGI(%) (Pan02; [1]): 62%
- Tumor size (Mean ± SEM) (Pan02; [1]): 340.16 ± 49.76 mm^3
- anti-tumor potency of anti-PD-1 antibody combined with the compound, compared to the antibody alone (Pan02; [2]): statistically significant increase
- anti-tumor potency of the compound combined with anti-PD-1 antibody, compared to being used alone (Pan02; [2]): statistically significant increase
- anti-tumor potency of anti-PD-1 antibody combined with the compound, compared to the antibody alone or the vehicle (EMT-6): statistically significant increase
- TGI(%) (MC38; [3]): 35%
- Tumor size (Mean ± SEM) (MC38; [3]): 1691.11 ± 123.57 mm^3
- anti-tumor potency of anti-PD-1 antibody combined with the compound, compared to the antibody alone or the vehicle (MC38; MC38 syngeneic colon cancer model): statistically significant increase
